Data reported in patent EP4119135A1, “METHODS FOR REBALANCING THE INTESTINAL FLORA IN PATIENTS SUFFERING FROM PARKINSON'S DISEASE” (Luxia Scientific, priority 2021, dated 2023).
Several values for one entry are separate records, joined by “and”; a condition that tells them apart may be missing. Equal values may be shown once. Entries after “also recorded” stand apart in the source; their conditions may differ.

Columns and labels:
Blautia = assay: Spearman correlation between estimated daily nutrient intake (food questionnaire) and relative abundance of the bacterial genus (16S sequencing of faecal samples); settings: nutrient intake vs relative abundance of Blautia, whole cohort (215 individus)
Excerpt: (§1) Les tests statistiques suivants ont été réalisés : • Corrélations non paramétriques de Spearman entre les apports en nutriments calculés et chacune des cinq bactéries d'intérêt. • Corrélations non paramétriques de Spearman entre les fréquences de consommation des aliments du questionnaire alimentaire et chacune des cinq bactéries d'intérêt. • Régressions ordinales entre les fréquences de consommation des aliments du questionnaire alimentaire et chacune des cinq bactéries d'intérêt.
(§2) Après avoir créé leur compte personnel sur le site internet de la société de Luxia Scientific, les clients peuvent remplir de manière volontaire un questionnaire alimentaire. Ce questionnaire possède neuf sous-groupes de questions, chacun constituant une catégorie d'aliments. À l'intérieur de ces sous-groupes, une liste complète d'aliments est fournie et donne aux personnes la possibilité de choisir la fréquence à laquelle elles ont consommé chaque aliment possible au cours du dernier mois dans une portion spécifiée.
(§3) Un tableau des apports nutritionnels par portion d'aliments présents dans le questionnaire a été ensuite créé. Pour créer ce tableau, la Table de composition alimentaire française Ciqual de l'ANSES du 07/07/2020 (https://ciqual.anses.fr/) a été utilisée.
(§4) L'apport en omégas-3 a été calculé en additionnant les valeurs d'apports en acide alpha-linolénique (18:3; ALA), en acide eïcosapentaénoïque (20:5; EPA) et en acide docosahexaénoïque (22:6; DHA). L'apport en omégas-6 a été calculé en additionnant les valeurs d'apports en acide linoléique (18:2; […]) et en acide arachidonique (20:4; ARA) qui sont les deux présents dans la Table Ciqual.
(§5) À cette étape, on possède d'une part les réponses des utilisateurs volontaires pour répondre au questionnaire alimentaire, et, d'autre part, on possède les apports nutritionnels mensuel pour chaque réponse possible de chaque aliment du questionnaire. Il convient ensuite de calculer la somme de tous les apports pour chaque réponse de l'individu au questionnaire, puis de la diviser par 30 pour obtenir l'apport nutritionnel quotidien moyen estimé pour cet individu.
(§6) On obtient ainsi un document décrivant les apports nutritionnels de 70 nutriments chez 288 individus.
(§7) Ces deux fichiers sont ainsi composés au final des données alimentaires de 288 individus. Au début de l'analyse, ont été supprimées les données de 2 individus qui sont des enfants de moins de 4 ans car à cet âge, leur microbiote est encore trop immature pour être représentatif des effets de l'alimentation sur leurs populations bactériennes. On utilise donc les données alimentaires de 286 individus pour les analyses de ce rapport.
(§8) Les résultats ayant servi à l'analyse du microbiote intestinal ont été générés en suivant le processus d'analyse du Dispositif Médical de Diagnostic In Vitro 1test1. En bref, les échantillons fécaux ont été prélevés avec un tube de collecte contenant un conservant afin de permettre le transport à température non controlée depuis l'utilisateur vers le laboratoire d'analyse (DNA/RNA Shield de Zymo Research). L'ADN a ensuite été extrait et le séquençage de la région v3-v4 ARN16s réalisé par le laboratoire IBBL au Luxembourg sur un séquenceur MiSeq d'Illumina selon le protocol en application (peut-être rajouter une référence publication). […]

Clostridium_XVIII = assay: as above; settings: nutrient intake vs relative abundance of Clostridium_XVIII, whole cohort (215 individus)
Excerpt: as §1, §2, §3, §4, §5, §6, §7, §8

Faecalibacterium = assay: as above; settings: nutrient intake vs relative abundance of Faecalibacterium, whole cohort (215 individus)
Excerpt: as §1, §2, §3, §4, §5, §6, §7, §8

microbiote intestinal = assay: Short-term colonic incubations (in vitro faecal fermentation, simplified SHIME) with faecal inocula of Parkinson and healthy donors; type: cell-based, humain; settings: for pH (activité de fermentation): 0-48h
Excerpt: Pour valider l'effet bénéfique des 5 nutriments d'intérêt sur le microbiote intestinal, une étude In Vitro a été réalisée sur des microbiotes reconstitués à partir de selles d'individus sains et de patients souffrant de la maladie de Parkinson. En particulier, l'effet bénéfique de l'apport de ces nutriments a été évalué à travers l'augmentation de la production de butyrate et d'acides gras à chaine courte en général, ainsi que les changements observés au niveau des métabolites.
Trois donneurs sains et deux donneurs atteints de la maladie de Parkinson ont été recrutés. Pour évaluer les effets de chacun des nutriments sur le microbiote intestinal des donneurs susmentionnés, des simulations coliques à court terme ont été effectuées. L'évaluation de chaque nutriment a été basée 1) sur les effets sur la fermentation microbienne globale (pH) et 2) sur l'activité métabolique microbienne (production de AGCC, de lactate et d'un panel d'environ 400 métabolites).
Les approches in vitro pour étudier le tractus gastro-intestinal et les processus microbiens intestinaux offrent une excellente configuration expérimentale pour étudier les processus qui se développent dans le microbiome intestinal humain. Le dépistage des effets de composés sélectionnés sur le microbiote intestinal peut être effectué au moyen d'une fermentation fécale réalisée dans un seul réacteur, ce qui permet d'évaluer la capacité de substrats spécifiques à moduler la composition et l'activité microbiennes intestinales. Ces expériences représentent une simulation simplifiée du Simulateur continu de l'écosystème microbien intestinal humain (SHIME®).
Les matières fécales ont été recueillies auprès de cinq donneurs (deux donneurs atteints de la maladie de Parkinson (PD) et trois donneurs sains (HD)).
Les matières fécales ont été recueillies dans des conteneurs anaérobies et conservées à la température du réfrigérateur jusqu'à un traitement ultérieur. Dans les 48 heures suivant la défécation, des suspensions fécales (15 % (p/v)) ont été préparées dans un tampon phosphate et mélangées dans un rapport 1 : 1 avec un cryoprotecteur optimisé en interne dans une chambre anaérobie. Les suspensions obtenues ont été immédiatement surgelées dans de l'azote liquide puis conservées à -80°C (cryostock). Juste avant l'expérience, les échantillons ont été décongelés et immédiatement ajoutés aux réacteurs, de sorte qu'un seul cycle de congélation-décongélation a été appliqué sur chaque inoculum individuel.
Un test de dépistage à court terme consiste généralement en une incubation colique d'une dose unique d'un composé d'essai dans des conditions représentatives du gros intestin proximal, en utilisant des inoculums bactériens provenant de donneurs sélectionnés comme sources microbiennes. Cinq traitements et une condition de référence (contrôle négatif) ont été testés par donneur. La composition du milieu dans le contrôle et les traitements est exactement la même, mais le contrôle ne contient pas l'ingrédient de test. Le contrôle est inclus pour déterminer les changements de base dans les différents paramètres étudiés (pH, production d'AGCC, lactate et métabolites liés à l'intestin) résultant de la fermentation des nutriments dans le milieu nutritionnel appauvri en glucides qui est introduit avec les ingrédients d'essai dans les réacteurs (voir ci-dessous), pour fournir des nutriments essentiels à la population microbienne. Chaque condition a été testée en une seule répétition chez cinq donneurs.
Un milieu nutritionnel appauvri en glucides (contenant les nutriments basaux du côlon) a été ajouté à chaque réacteur (y compris le contrôle), ainsi que 10 % (v/v) d'un inoculum fécal cryoconservé à 7,5 % (qui a servi de source microbienne) de chaque des cinq donneurs, portant le volume total dans les réacteurs à 70 mL. Des billes porteuses de mucine ont été incluses dans chaque réacteur, pour simuler la couche de mucus du côlon. […]

[1] = healthy individuals, vs control
[2] = two Parkinson patients, vs control

CC1=C(/C=C/C(C)=C/C=C/C(C)=C/C=C/C=C(C)/C=C/C=C(C)/C=C/C2=C(C)CCCC2(C)C)C(C)(C)CCC1 [Beta-Carotène, bêta-carotène]
corrélation (Blautia): 0,14
corrélation (Blautia; listed as bêta-carotène): corrélation positive significative au seuil de 5%
corrélation (Clostridium_XVIII): 0,11
corrélation (Faecalibacterium): 0,12

CCC=CCC=CCC=CCC=CCC=CCC=CCCC(=O)O [DHA, acide docosahexaénoïque]
corrélation (Clostridium_XVIII): 0,11 and 0,10

CCCC(=O)O [butyrate de sodium]
production de butyrate (microbiote intestinal; Parkinson patients, vs control, added 10 mM butyrate taken into account): a fortement stimulé la production de butyrate; also recorded: a stimulé la production de butyrate dans la population parkinsonienne
production d'acétate (microbiote intestinal; [1]): concentrations d'acétate similaires à celles du contrôle
production de propionate (microbiote intestinal; [1]): concentrations de propionate similaires à celles du contrôle
production de butyrate (microbiote intestinal; healthy individuals, vs control (blank)): n'a pas stimulé la production de butyrate; also recorded: pas dans la population en bonne santé
pH (activité de fermentation) (microbiote intestinal; [1]): baisses de pH les plus légères
production d'acétate (microbiote intestinal; [2]): concentrations d'acétate similaires à celles du contrôle
production de propionate (microbiote intestinal; [2]): légers effets de stimulation
pH (activité de fermentation) (microbiote intestinal; [2]): profils de pH similaires à ceux du contrôle
